Measured values from patent EP4733400A1, “ANTISENSE OLIGONUCLEOTIDE TARGETING HIC-5” (SHOWA Medical University, priority 2023, dated 2025).
{TEG-Chol} = cholesterol attached via TEG linker; l = locked nucleic acid (LNA); {Toco} = tocopherol conjugate; d = 2'-deoxy (DNA)

System: Hic-5
Assay: Condition 8: Hic-5 expression by RT-PCR, human HSCs, ASO 5 µM without transfection reagent, 72 hours
Assay type: cell-based
Conditions: ratio, mean±SEM

Substance	Expression Inhibition Rate (4) Condition 8 (n=2)
H26_cho: modified at the 5' end of H26 with TEG-cholesterol; GCTCGTGGAAACCCTC; LNA 1-3,14-16; SEQ ID NO 458 (sugars from the 5' end l3 d10 l3, 5' {TEG-Chol}, backbone and methylation of C not given here)	0.161±0.110
H26_toco: modified at the 5' end of H26 with tocopherol; GCTCGTGGAAACCCTC; LNA 1-3,14-16; SEQ ID NO 459 (sugars from the 5' end l3 d10 l3, 5' {Toco}, backbone and methylation of C not given here)	0.738±0.010
